Assay results as given in patent US20250339409A1, “USES OF PAN BET INHIBITORS” (VYNE THERAPEUTICS INC., priority 2021, published 2025).
In brackets after ≈: the same amount, converted by molar mass. Read-outs that look alike come from different tables or passages of the source.

Columns and labels:
[1] = Homogeneity of BETi1 dispersions in NaCMC/saline by light microscopy; format: physicochemical; conditions: suspensions in NaCMC solutions
Protocol: BETi1 is dispersed in 0.5% Sodium Carboxymethyl Cellulose (NaCMC) solution in NaCl saline (0.9% NaCl in water) to receive 4 mg/gram dispersion. […] All dispersions are thermally sterilized.
BETi suspensions at 4 mg/g (0.4%), at 0.4 mg/g (0.04%) and at 0.04 mg/g (0.004%) (Table 38) were prepared in NaCMC solutions as set out in Experimental Method N. The homogeneity (including absence of aggregates of solid particles) of the dispersion was analyzed and confirmed by light microscopy as shown in FIG. 14A-C. […] In the sample at 0.04 mg/g mainly larger crystals were observed, since the smaller ones were probably dissolved.

[2] = test system: reconstituted human epidermis stimulated with TNF-α and IFN-γ; assay: Reconstituted human epidermis (RHE) vitiligo model: morphological analysis after H/E staining; format: cell-based; conditions: topical on RHE, 48 h
Protocol: To generate the morphological and functional aspects of vitiligo, in vitro reconstituted epidermis with Normal Human Epidermal Keratinocytes (NHEK) and Normal Human Epidermal Melanocytes, darkly pigmented (NHEM-DP) are exposed to a cytokine cocktail (TNF-α and IFN-γ). The cytokine cocktail is applied during 48 hours in the culture medium of epidermis. NHEK are isolated from the fore skin of 3 Caucasian donors, and NHEM-DP are isolated from 1 donor. The tissues are cultured at the air-liquid interface in Epilife medium (Fisher Scientific, M-EPI-500-A) containing supplements and antibiotics (Gentamycin, Fisher Scientific, 15710-049). […] Three epidermis samples per condition are fixed in 4% formaldehyde solution and embedded in paraffin for further analysis (morphology analysis, melanin and melanocytes localisation/quantification). […] The tissue morphology is analyzed through a Hematoxylin/Eosin (H/E) staining. […] Formulations containing four doses of BETi1, the BETi1 vehicle (placebo) and JAK inhibitor, were evaluated in RHE TNF-α/IFN-γ vitiligo model as described in Experimental section Methods C and D and representative images of H/E stained epidermis sections are shown in FIG. 4A-H. Treatments of the RHEs with each of the formulations were initiated at day 9 of their reconstitution process. […]

[3] = Solubility of BETi1 in water (HPLC) and in solvents (visual observation); format: physicochemical; conditions: sample of 0.04 mg/g (0.004%) in NaCMC/saline
[4] = as above; format: physicochemical
Protocol: The resulting sample, still containing solid BETi1, was filtered and analyzed by HPLC for assay of BETi1 in solution. Solubility of BETi in water was determined to be about 0.005 mg/gram or 0.5 mg/100 mL water (1 ml=1 g) using HPLC (Table 41A).
To characterize the solubility of BETi in other solvents, about 5 mg of BETi1 was weighed into a 2 ml glass vial. 20 μL aliquots of each of the solvent listed in Table 41B was added to dissolve the drug substance at 25° C. Vortex and sonication were applied to assist dissolution. Approximate solubility was determined by visual observation and reported in […]

[5] = Toxicokinetics in dogs after intra-articular injection: plasma concentrations; format: in vivo, Beagle dogs; conditions: dog; for AUC(0-t) / Cmax / Tmax / concentration at 1 h / concentration at 2 h / concentration at 4 h / concentration at 8 h / concentration at 24 h / concentration at 336 h / concentration at 504 h / concentration at 672 h / concentration at 4 weeks: Beagle, plasma; for AUC(0-t): read-out: Plasma AUC0-672 h; for concentration at 1 h / concentration at 2 h / concentration at 4 h / concentration at 8 h / concentration at 24 h / concentration at 336 h / concentration at 504 h / concentration at 672 h / concentration at 4 weeks: other: intra-articular injection; for concentration at 1 h / concentration at 2 h / concentration at 4 h / concentration at 8 h / concentration at 24 h / concentration at 336 h / concentration at 504 h / concentration at 672 h: read-out: Plasma concentration of BETi1; for concentration at 4 weeks: read-out: plasma level at four weeks post-treatment
[6] = both sexes, 7.5 mg/animal, 7.5 mg intra-articular
[7] = both sexes, 75 mg/animal, 75 mg intra-articular
[8] = both sexes, 150 mg/animal, 150 mg intra-articular

Cn1cc(-c2cccc(O)c2Oc2ccccc2)c2cc[nH]c2c1=O [BETi1]
aggregates of API particles in dispersions [1]: no visible aggregates of API particles | morphological alteration of RHE (H/E staining) [2]: did not induce any morphological alteration | fraction of API in undissolved form [3]: approximately 90% | solubility ([4]; isopropanol): slightly soluble | solubility ([4]; organic solvent or mixture, thermodynamic from solid, 1,4-Dioxane, 25° C., visual observation, read-out: Approximate solubility): 104 mg/mL (≈ 313 mM) | solubility ([4]; organic solvent or mixture, thermodynamic from solid, Acetone, 25° C., visual observation, read-out: Approximate solubility): 15 mg/mL (≈ 45.1 mM) | solubility ([4]; organic solvent or mixture, thermodynamic from solid, Acetonitrile, 25° C., visual observation, read-out: Approximate solubility): < 5 mg/mL | solubility ([4]; organic solvent or mixture, thermodynamic from solid, Anisole, 25° C., visual observation, read-out: Approximate solubility): < 5 mg/mL | solubility ([4]; organic solvent or mixture, thermodynamic from solid, Dichloromethane, 25° C., visual observation, read-out: Approximate solubility): < 5 mg/mL | solubility ([4]; organic solvent or mixture, thermodynamic from solid, Ethanol, 25° C., visual observation, read-out: Approximate solubility): 12 mg/mL (≈ 36.1 mM) | solubility ([4]; organic solvent or mixture, thermodynamic from solid, Ethyl acetate, 25° C., visual observation, read-out: Approximate solubility): < 5 mg/mL | solubility ([4]; organic solvent or mixture, thermodynamic from solid, Heptane, 25° C., visual observation, read-out: Approximate solubility): < 5 mg/mL | solubility ([4]; organic solvent or mixture, thermodynamic from solid, IPAc, 25° C., visual observation, read-out: Approximate solubility): < 5 mg/mL | solubility ([4]; organic solvent or mixture, thermodynamic from solid, Isopropanol, 25° C., visual observation, read-out: Approximate solubility): 6 mg/mL (≈ 18.1 mM) | solubility ([4]; organic solvent or mixture, thermodynamic from solid, Methanol, 25° C., visual observation, read-out: Approximate solubility): 21 mg/mL (≈ 63.2 mM) | solubility ([4]; organic solvent or mixture, thermodynamic from solid, Methyl ethyl ketone, 25° C., visual observation, read-out: Approximate solubility): 12 mg/mL (≈ 36.1 mM) | solubility ([4]; organic solvent or mixture, thermodynamic from solid, Tetrahydrofuran, 25° C., visual observation, read-out: Approximate solubility): 104 mg/mL (≈ 313 mM) | solubility ([4]; organic solvent or mixture, thermodynamic from solid, t-Butyl methyl ether, 25° C., visual observation, read-out: Approximate solubility): < 5 mg/mL | solubility ([4]; polyethylene glycol 400, methanol, ethanol, acetone and methyl ethyl ketone): sparingly soluble | solubility ([4]; polyethylene glycol 400, organic solvent or mixture, read-out: solubility in polyethylene glycol 400): ~20 mg/mL (≈ 60.2 mM) | solubility ([4]; tetrahydrofurane and 1,4-dioxane): freely soluble | solubility at 5 h ([4]; thermodynamic from solid, Water, 25° C., HPLC, read-out: Approximate solubility): 0.005 mg/mL (≈ 0.015 mM) | solubility ([4]; water, ethyl acetate, acetonitrile, IPAc, t-Butyl methyl ether, heptane, dichloromethane or anisole): insoluble | solubility at 5 h ([4]; water, as stated in the dog study, read-out: water solubility limit): 0.05 mg/mL (≈ 0.15 mM) | AUC(0-t) ([5]; 7.5 mg/animal, Female, Study Day 1): 472 ng·h/mL | Cmax ([5]; 7.5 mg/animal, Female, Study Day 1, read-out: Plasma Cmax): 37.6 ng/mL | Tmax ([5]; 7.5 mg/animal, Female, Study Day 1, read-out: Plasma Tmax): 1.5 h | AUC(0-t) ([5]; 7.5 mg/animal, Male, Study Day 1): 390 ng·h/mL | Cmax ([5]; 7.5 mg/animal, Male, Study Day 1, read-out: Plasma Cmax): 32.1 ng/mL | Tmax ([5]; 7.5 mg/animal, Male, Study Day 1, read-out: Plasma Tmax): 4 h | AUC(0-t) ([5]; 75 mg/animal, Female, Study Day 1): 3760 ng·h/mL | Cmax ([5]; 75 mg/animal, Female, Study Day 1, read-out: Plasma Cmax): 56.6 ng/mL | Tmax ([5]; 75 mg/animal, Female, Study Day 1, read-out: Plasma Tmax): 2 h | AUC(0-t) ([5]; 75 mg/animal, Male, Study Day 1): 3070 ng·h/mL | Cmax ([5]; 75 mg/animal, Male, Study Day 1, read-out: Plasma Cmax): 50.2 ng/mL | Tmax ([5]; 75 mg/animal, Male, Study Day 1, read-out: Plasma Tmax): 2 h | AUC(0-t) ([5]; 150 mg/animal, Female, Study Day 1): 5990 ng·h/mL | Cmax ([5]; 150 mg/animal, Female, Study Day 1, read-out: Plasma Cmax): 52.9 ng/mL | Tmax ([5]; 150 mg/animal, Female, Study Day 1, read-out: Plasma Tmax): 5 h | AUC(0-t) ([5]; 150 mg/animal, Male, Study Day 1): 3810 ng·h/mL | Cmax ([5]; 150 mg/animal, Male, Study Day 1, read-out: Plasma Cmax): 48.8 ng/mL | Tmax ([5]; 150 mg/animal, Male, Study Day 1, read-out: Plasma Tmax): 2 h | concentration at 1 h [5, 6]: 29.6 ng/mL | concentration at 2 h [5, 6]: 32.6 ng/mL | concentration at 4 h [5, 6]: 26.1 ng/mL | concentration at 8 h [5, 6]: 15.9 ng/mL | concentration at 24 h [5, 6]: 2.02 ng/mL | concentration at 336 h [5, 6]: 0 ng/mL | concentration at 504 h [5, 6]: 0 ng/mL | concentration at 672 h [5, 6]: 0 ng/mL | concentration at 1 h [5, 7]: 49.1 ng/mL | concentration at 2 h [5, 7]: 53.4 ng/mL | concentration at 4 h [5, 7]: 39.4 ng/mL | concentration at 8 h [5, 7]: 38.1 ng/mL | concentration at 24 h [5, 7]: 13.5 ng/mL | concentration at 336 h [5, 7]: 1.95 ng/mL | concentration at 504 h [5, 7]: 0.835 ng/mL | concentration at 672 h [5, 7]: 0.505 ng/mL | concentration at 1 h [5, 8]: 42.2 ng/mL | concentration at 2 h [5, 8]: 48.8 ng/mL | concentration at 4 h [5, 8]: 35.8 ng/mL | concentration at 8 h [5, 8]: 48.2 ng/mL | concentration at 24 h [5, 8]: 20.9 ng/mL | concentration at 336 h [5, 8]: 4.72 ng/mL | concentration at 504 h [5, 8]: 2.19 ng/mL | concentration at 672 h [5, 8]: 1.72 ng/mL | concentration at 4 weeks ([5]; both sexes, 75 mg/animal, intra-articular, 75 mg): 2 nM | concentration at 4 weeks ([5]; both sexes, 150 mg/animal, intra-articular, 150 mg): 5 nM | Tmax ([5]; both sexes, intra-articular, calculated, read-out: Tmax, plasma (converted)): ~120 h | Cmax ([5]; both sexes, intra-articular, read-out: Cmax, plasma): 50 ng/mL | clearance indicated by plasma levels ([5]; intra-articular): rapid clearance with a reduction being seen after 4 hours | plasma AUC lower compared to synovial levels ([5]; intra-articular): ~2000 × | plasma Cmax lower compared to synovial levels ([5]; intra-articular): ~1000 ×
